Measured values published in ChEMBL document CHEMBL2146457, “Development of 'DFG-out' inhibitors of gatekeeper mutant kinases” (Bioorg Med Chem Lett, 2012).

How the values were obtained:
[1] = Cytotoxicity against wild type mouse BA/F3 cells; type: cell-based; settings: BaF3
[2] = Cytotoxicity against mouse BA/F3 cells expressing wild type Bcr-Abl; type: functional, cell-based; settings: BaF3
[3] = Cytotoxicity against mouse BA/F3 cells expressing imatinib resistant Bcr-Abl […] mutant; type: functional, cell-based; settings: BaF3
[4] = Clearance in rat at 2 mg/kg, po; type: ADME, organism-based; set-up: dose 2 mg/kg, route oral; settings: in vivo
[5] = Half life in rat at 2 mg/kg, po; type: ADME, organism-based; set-up: dose 2 mg/kg, route oral; settings: in vivo
Rattus norvegicus = test: Oral bioavailability in rat at 2 mg/kg; type: ADME, organism-based; settings: in vivo
[6] = Cytotoxicity against mouse parental BA/F3 cells; settings: BaF3
[7] = Volume of distribution at steady state in rat at 1 mg/kg, iv; type: ADME, organism-based; set-up: dose 1 mg/kg, route intravenous; settings: in vivo, read-out: Vdss
[8] = Cmax in rat at 2 mg/kg, po; type: ADME, organism-based; set-up: dose 2 mg/kg, route oral; settings: in vivo
[9] = MRT in rat at 2 mg/kg, po; type: ADME, organism-based; set-up: dose 2 mg/kg, route oral; settings: in vivo
[10] = AUC in rat at 1 mg/kg, iv; type: ADME, organism-based; set-up: dose 1 mg/kg, route intravenous; settings: plasma
[11] = Cmax in rat at 1 mg/kg, iv; type: ADME, organism-based; set-up: dose 1 mg/kg, route intravenous; settings: in vivo
[12] = Half life in rat at 1 mg/kg, iv; type: ADME, organism-based; set-up: dose 1 mg/kg, route intravenous; settings: in vivo
[13] = AUC in rat at 2 mg/kg, po; type: ADME, organism-based; set-up: dose 2 mg/kg, route oral; settings: plasma
[14] = Clearance in rat at 1 mg/kg, iv; type: ADME, organism-based; set-up: dose 1 mg/kg, route intravenous; settings: in vivo
[15] = MRT in rat at 1 mg/kg, iv; type: ADME, organism-based; set-up: dose 1 mg/kg, route intravenous; settings: in vivo

Row | SMILES | EC50 [1] [nM] | EC50 [2] [nM] | EC50 [3] [nM] | further results
1 | O=C(Nc1ccc(N2CCNCC2)c(C(F)(F)F)c1)c1cccc(-c2ccc3nc(NC(=O)C4CC4)sc3n2)c1 | 2300 | 2310 | 2300 | 
2 | Nc1nc2ccc(-c3cccc(C(=O)Nc4cccc(C(F)(F)F)c4)c3)nc2s1 | > 10000 | > 10000 | > 10000 | 
3 | CC(=O)Nc1nc2ccc(-c3cccc(C(=O)Nc4cccc(C(F)(F)F)c4)c3)nc2s1 | > 10000 | 5000 | 3770 | 
4 | O=C(Nc1cccc(C(F)(F)F)c1)c1cccc(-c2ccc3nc(NC(=O)C4CC4)sc3n2)c1 | 910 | 420 | 960 | 
5 | O=C(Nc1cccc(C(F)(F)F)c1)c1cccc(-c2ccc3nc(NC(=O)C4CCNCC4)sc3n2)c1 | > 10000 | > 10000 | > 10000 | 
6 | CC(=O)N1CCN(CCC(=O)Nc2nc3ccc(-c4cccc(C(=O)Nc5cccc(C(F)(F)F)c5)c4)nc3s2)CC1 | > 10000 | 5210 | > 10000 | 
7 | O=C(Nc1nc2ccc(-c3cccc(C(=O)Nc4cccc(C(F)(F)F)c4)c3)nc2s1)NC1CCNCC1 | > 10000 | 7600 | 7180 | 
8 | Cc1nc(Nc2nc3ccc(-c4cccc(C(=O)Nc5cccc(C(F)(F)F)c5)c4)nc3s2)cc(N2CCNCC2)n1 | 6740 | 1900 | 2410 | 
9 | O=C(Nc1cccc(C(F)(F)F)c1)c1cccc(-c2ccc3nc(Nc4ccc(S(=O)(=O)N5CCNCC5)cc4)sc3n2)c1 | > 10000 | 6210 | > 10000 | 
10 | CCN1CCN(Cc2ccc(NC(=O)c3cccc(-c4ccc5nc(N)sc5n4)c3)cc2C(F)(F)F)CC1 | > 10000 | > 10000 | > 10000 | 
11 | CCN1CCN(Cc2ccc(NC(=O)c3cccc(-c4ccc5nc(NC(C)=O)sc5n4)c3)cc2C(F)(F)F)CC1 | 4160 | 139 | 193 | 
12 | CCN1CCN(Cc2ccc(NC(=O)c3cccc(-c4ccc5nc(NC(=O)C6CC6)sc5n4)c3)cc2C(F)(F)F)CC1 | 3080 |  | 156 | CL/F [4]: 74.4 mL/min/kg; half-life [5]: 4.7 h; F (Rattus norvegicus): 18.8%; EC50 [6]: 3080 nM; Vd [7]: 6.5 L/kg; Cmax [8]: 53.1 ng/mL; MRT [9]: 7.7 h; AUC [10]: 1230 ng·h/mL; Cmax [11]: 292 ng/mL; half-life [12]: 5.8 h; AUC [13]: 462 ng·h/mL; clearance [14]: 13.7 mL/min/kg; MRT [15]: 8.1 h
13 | CCN1CCN(Cc2ccc(NC(=O)c3cccc(-c4ccc5nc(Nc6ccccn6)sc5n4)c3)cc2C(F)(F)F)CC1 | 3530 | 146 | 276 | 
14 | O=C(Nc1ccc(-n2ccnc2)cc1)c1cccc(-c2ccc3nc(NC(=O)C4CC4)sc3n2)c1 | > 10000 | > 10000 | > 10000 | 
15 | Cc1cn(-c2cc(NC(=O)c3cccc(-c4ccc5nc(NC(=O)C6CC6)sc5n4)c3)cc(C(F)(F)F)c2)cn1 | 1990 | 380 | 190 | CL/F [4]: 303 mL/min/kg; half-life [5]: 3.7 h; F (Rattus norvegicus): 3.7%; Vd [7]: 1.7 L/kg; Cmax [8]: 32 ng/mL; MRT [9]: 5.3 h; AUC [10]: 1850 ng·h/mL; Cmax [11]: 672 ng/mL; half-life [12]: 2.4 h; AUC [13]: 136 ng·h/mL; clearance [14]: 9.5 mL/min/kg; MRT [15]: 3.1 h
16 | CCN1CCN(Cc2ccc(NC(=O)c3ccc(C)c(-c4ccc5nc(NC(=O)C6CC6)sc5n4)c3)cc2C(F)(F)F)CC1 | 1230 | 1 | 60 | 
17 | Cc1cn(-c2cc(NC(=O)c3ccc(C)c(-c4ccc5nc(NC(=O)C6CC6)sc5n4)c3)cc(C(F)(F)F)c2)cn1 | 4670 | 30 | 560 | 
18 | CCN1CCN(Cc2ccc(NC(=O)c3ccc(F)c(-c4ccc5nc(NC(=O)C6CC6)sc5n4)c3)cc2C(F)(F)F)CC1 | > 10000 | 20 | 300 | 
19 | Cc1cn(-c2cc(NC(=O)c3ccc(F)c(-c4ccc5nc(NC(=O)C6CC6)sc5n4)c3)cc(C(F)(F)F)c2)cn1 | > 10000 | 20 | 590 | 
20 | CCN1CCN(Cc2ccc(C(=O)Nc3cccc(-c4ccc5nc(NC(=O)C6CC6)sc5n4)c3)cc2C(F)(F)F)CC1 | > 10000 | 200 | 780 | 
21 | CCN1CCN(Cc2ccc(NC(=O)Nc3cccc(-c4ccc5nc(NC(=O)C6CC6)sc5n4)c3)cc2C(F)(F)F)CC1 | 690 | 18 | 13 | 
22 | Cc1cn(-c2cc(NC(=O)Nc3cccc(-c4ccc5nc(NC(=O)C6CC6)sc5n4)c3)cc(C(F)(F)F)c2)cn1 | > 10000 | 1240 | 550 | 
